Measurements as given in patent US9169241B2, “Quinolinyloxyphenylsulfonamides” (Max-Planck-Gesellschaft Zur Forderung der Wissenschaften …, priority 2009, dated 2015).
Like-named read-outs stand apart in the source and are kept apart here.

Legend:
Assay type in all cases: cell-based
[1] = target: T1, wild type AXL (wtAXL) receptor tyrosine kinase (Homo sapiens, UniProt P30530); assay: NIH-3T3-AXL cellular kinase assay (pY-AXL-ELISA); conditions: NIH-3T3-AXL (clone 22) cells, serum depleted, compounds 1 h; Table Ia
T1 construct: WtAXL cDNA was cloned into vector pLXSN(ESK) and transfected into Phoenix E packaging cells; expressed in transfected cells; host or cells: NIH3T3 N7 (mouse fibroblasts), retrovirally infected, clone 22
T1 sequence (P30530 26-894): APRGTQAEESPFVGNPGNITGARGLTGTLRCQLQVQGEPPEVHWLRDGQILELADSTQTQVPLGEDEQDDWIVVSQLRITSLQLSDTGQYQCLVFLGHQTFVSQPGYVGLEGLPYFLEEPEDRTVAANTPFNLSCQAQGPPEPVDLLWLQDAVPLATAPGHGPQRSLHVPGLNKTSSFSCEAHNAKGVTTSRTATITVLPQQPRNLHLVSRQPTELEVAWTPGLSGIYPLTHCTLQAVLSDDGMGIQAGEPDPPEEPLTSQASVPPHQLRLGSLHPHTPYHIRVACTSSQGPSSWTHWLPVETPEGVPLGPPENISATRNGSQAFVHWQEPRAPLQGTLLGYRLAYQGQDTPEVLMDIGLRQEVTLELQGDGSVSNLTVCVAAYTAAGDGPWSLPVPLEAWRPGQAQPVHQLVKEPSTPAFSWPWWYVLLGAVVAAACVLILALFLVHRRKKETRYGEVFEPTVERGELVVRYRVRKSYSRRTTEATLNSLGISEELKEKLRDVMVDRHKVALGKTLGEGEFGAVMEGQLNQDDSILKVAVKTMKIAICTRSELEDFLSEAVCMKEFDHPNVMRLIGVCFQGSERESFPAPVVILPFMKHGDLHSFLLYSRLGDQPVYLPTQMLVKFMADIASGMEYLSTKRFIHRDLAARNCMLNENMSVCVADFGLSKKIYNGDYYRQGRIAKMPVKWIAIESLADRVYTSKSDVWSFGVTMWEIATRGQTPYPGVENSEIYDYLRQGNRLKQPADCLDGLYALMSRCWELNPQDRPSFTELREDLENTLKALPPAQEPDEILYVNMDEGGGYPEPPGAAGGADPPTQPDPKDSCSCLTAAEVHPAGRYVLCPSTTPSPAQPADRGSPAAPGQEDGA
Procedure, shortened: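 Phospho-AXL was quantified by ELISA in lysates (4G10-biotin, streptavidin-AP, AttoPhos, 430/560 nm read at 90 min). The cells were monoclonal NIH3T3 lines stably transduced with human wtAXL, exposed to serial compound dilutions for 1 h before lysis.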

[2] = test system: Hs578T; assay: Wound healing migration assay; conditions: Homo sapiens, Hs-578T; HS578T cell line; Table Ib
Procedure, shortened: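 Compound exposure at 12.5, 6.25 and 3.125 μM, with DMSO control, on scratch-wounded monolayers (150000 cells/24 well, overnight). Wound closure imaged by microscopy, fixed with crystal violet after 48 h or 72 h depending on cell line; IC50 is the concentration giving 50% wound size between t0 and t48/t72.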

[3] = test system: tumor cell; assay: Matrigel outgrowth assay/branching assay (Table Va)
Procedure, shortened: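 Matrigel 3 mg/ml, polymerized 1 h 37° C; 5000 cells/well + cmpd 3.125/1.56/0.78 μM or DMSO. Imaged 48/72/96 h, 5× objective. Positive = total branching block.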

[4] = Homo sapiens, C8161 cells, read-out: Total branching inhibition in Matrigel C8161
[5] = Homo sapiens, Hs-578T, Hs578T cells, read-out: Total branching inhibition in Matrigel Hs578T
[6] = U118 cells, read-out: Total branching inhibition in Matrigel U118
[7] = U138 cells, read-out: Total branching inhibition in Matrigel U138

IC50 [1] [µM]	IC50 [2] [µM]	IC50 [3, 4] [µM]	IC50 [3, 5] [µM]	IC50 [3, 6] [µM]	IC50 [3, 7] [µM]	SMILES
< 0.5	≤ 12.5	≤ 5	≤ 5	≤ 5	≤ 5	COc1cc2c(Oc3ccc(NS(=O)(=O)c4cc(F)ccc4F)cc3F)ccnc2cc1OCCCN1CCN(C)CC1 [Example 12, 2,5-Difluoro-N-(3-fluoro-4-{6-methoxy-7-[3-(4-methyl-piperazin-1-yl)-propoxy]-quinolin-4-yloxy}-phenyl)-benzenesulfonamide]
< 0.5	≤ 12.5	≤ 5	≤ 5	≤ 5	≤ 5	COc1cc2c(Oc3ccc(NS(=O)(=O)c4cccc(-c5ccccc5)c4)cc3F)ccnc2cc1OCCCN1CCCCC1 [Example 8, Biphenyl-3-sulfonic acid {3-fluoro-4-[6-methoxy-7-(3-piperidin-1-yl-propoxy)-quinolin-4-loxy]-phenyl}-amide]
< 0.5	≤ 12.5	≤ 5	≤ 5	≤ 5	5 to 50	COc1cc2c(Oc3ccc(NS(=O)(=O)c4cc(C)ccc4F)cc3F)ccnc2cc1OCCCN1CCCC(C)C1 (stereo not drawn) [Example 55]
< 0.5	≤ 12.5	5 to 50	≤ 5	≤ 5	5 to 50	COc1cc2c(Oc3ccc(NS(=O)(=O)c4c(F)cccc4F)cc3F)ccnc2cc1OCCCN1CCOCC1 [Example 77, 2,6-Difluoro-N-{3-fluoro-4-[6-methoxy-7-(3-morpholin-4-yl-propoxy)-quinolin-4-yloxy]-phenyl}-benzenesulfonamide]
